Values quoted from earlier work, collected in publication PMC5007443, “TNIK inhibition abrogates colorectal cancer stemness” (Nature Communications, 2016).

Key:
TNIK = test system: TNIK; set-up: method as in PMID 23232060; details: read-out: IC50, enzyme activity of TNIK; cited from earlier work
Wnt signal = test system: Wnt signal; set-up: method as in PMID 23232060; details: read-out: IC50, Wnt signal-inhibitory effects; cited from earlier work
lung cancer cells = test system: lung cancer cells; set-up: method as in PMID 25337707; details: cited from earlier work

| Compound | IC50 (TNIK) [nM] | IC50 (Wnt signal) [nM] | EMT of lung cancer cells induced by TGF-β1 (lung cancer cells) |
| --- | --- | --- | --- |
| COc1ccc(C#N)cc1-c1ccnc(Nc2ccc(N3CCOCC3)c(OC)c2)c1 [Compound 9, 4-methoxy-3-(2-(3-methoxy-4-morpholinophenylamino)pyridin-4-yl)benzonitrile] | 8 | > 2000 |  |
| Cc1ccc(C(=O)Nc2sc(Nc3ccccc3)nc2C(N)=O)cc1 [NCB-0005] |  |  | inhibit |
